Patent publication US20200038393A1, “APOMORPHINE PLUS BUSPIRONE COMBINATION FOR MEMORY REVIVAL” (priority 2018, published 2020)

Tests used:
[1] = Exploratory activity in novel environment of an open field; assay type: in vivo; conditions: rats
Procedure: Open field consisted of a square area (76×76 cm) with walls 42 cm high. Floor of the apparatus was divided by lines into 25 squares of equal size. Experiment was conducted in a quiet room under white light. Animals were tested 24 hr post 1st and 6th apomorphine injection. Numbers of squares crossed with all four paws and latency to move from the central square were scored for 5 min.

[2] = Morris water maze test (learning acquisition, memory consolidation, retention); assay type: in vivo, rats
Procedure: The Morris water maze test was conducted after repetitive apomorphine injections and post-conditioning. Water temperature was at room temperature, 21±1° C. The platform (10 cm×10 cm) was made of clear acrylic and was hidden 2 cm below the surface of water in a fixed location. Water was made opaque by adding milk to it.
During training phase, each rat was placed into the water facing the wall of the tank and allowed 120 sec to locate and climb onto the submerged platform. The rat was allowed to stay on the platform for 10 sec. […] After the training animals were tested three times.
Each rat was tested immediately after training. Learning acquisition was determined by recording the initial latency (IL; the time taken by each rat to relocate the hidden platform).
Rats were tested for memory consolidation 60 min post training. It was determined by recording the retention latency (RL; the time taken by each rat to locate the hidden platform 1 h after training). The cut off time for each session was 2 min.
Rats were tested for memory retention 24 hr post training session. Memory retention was determined by recording the retention latency (RL; the time taken by each rat to locate the hidden platform 24 hr post training). The cut off time for each session was 2 min.

[3] = Conditioned place preference (CPP) test for addictive/reinforcing effects; assay type: in vivo, rats
Excerpt: Apparatus for Conditioned Place Preference
A three compartment conditioned place preference (CPP) apparatus with an unbiased design was used to monitor drug-induced reinforcement. The apparatus was made up of transparent plastic Perspex. The compartments were separated by sliding guillotine doors.
The end (preference) compartments (26×26×26 cm each) provided distinct contexts, with one compartment having black horizontal stripes on side walls, the other compartment had vertical black stripes. […] The experiment was conducted in three distinct phases: pre-conditioning, conditioning and post-conditioning.
An animal introduced in the CPP apparatus from the middle compartment and guillotine doors were raised to open. The animal was allowed to explore the entire apparatus for 10 min. Time spent in each compartment was recorded.
(§1) This phase started one day after pre-conditioning phase, animals were randomly assigned to six groups, each containing six animals: (i) buspirone (0 mg/kg)-saline, (ii) buspirone (0 mg/kg)-[…], (iii) buspirone (1 mg/kg)-saline, (iv) buspirone (1 mg/kg)-apomorphine, (v) buspirone (2 mg/kg)-saline and (vi) buspirone (2 mg/kg)-apomorphine injected animals. Over next 12 days (day 1 to day 12) animals went through conditioning (one session per day) in which they were confined to either the horizontal or vertical stripe compartment by raising the respective guillotine door. On day 1, 3, 5, 7, 9 and 11 animals of all groups were injected with saline (1 ml/kg) and placed immediately in the assigned ‘Non-Drug paired’ compartment for 30 min. After which the animals were kept back in their home cages. On every other day, i.e. day 2, 4, 6, 8, 10, and 12 control and test animals were injected with saline, buspirone and/or apomorphine as assigned above. Immediately after injections, animals were placed in the ‘Drug paired’ compartment for 30 min. The animals picked from the drug paired compartment were placed back in their home cages.
The test was carried out on day 13, 24 hr post last conditioning session, in a drug free state. Each animal was tested only once. As in the pre-conditioning phase, the guillotine doors were removed and rat was given access to the entire apparatus for 10 min. Time spent in ‘Drug paired’ compartment was monitored.

[4] = Motor behavior (cage crossings) and % psychosis like effects during conditioning phase; assay type: in vivo; conditions: rats
Procedure: as §1
Motor behavior was also monitored during conditioning phase. Animals confined to a compartment were moving across the compartment. Activity scores were counted as number of cage crossings for 10 min starting 5 min post injection.

[5] = buspirone 1 mg/kg with apomorphine, rats
[6] = buspirone co-injected animals (summary statement)
[7] = buspirone 1 mg/kg co-administered with apomorphine 1 mg/kg, rats
[8] = buspirone 1 mg/kg co-treated with apomorphine 1 mg/kg

Structure (SMILES): CN1CCc2cccc3c2[C@H]1Cc1ccc(O)c(O)c1-3 [apomorphine]
- Exploratory activity in open field ([1]; apomorphine alone): increased
- Memory consolidation (time taken to reach platform) ([2]; apomorphine vs saline treated animals, 60 min post training, rats): increase
- Memory retention (time taken to reach platform) ([2]; apomorphine vs saline treated animals, 24 hr post training, rats): increase
- Learning acquisition (time taken to reach platform) ([2]; apomorphine vs saline treated animals, tested immediately after training, rats): increase
- Post-conditioning values of time spent in the drug paired compartment ([3]; apomorphine 1 mg/kg, repeated, vs pre-conditioning/saline, rats): much higher
- % reinforcement ([3]; apomorphine 1 mg/kg, rats): increased
- Motor activities post repeated administration ([4]; apomorphine 1 mg/kg, repeated administration): increased
- Motor activities post single administration ([4]; apomorphine 1 mg/kg, single administration): increase
- % psychosis like effects ([4]; apomorphine 1 mg/kg): produced

Structure (SMILES): O=C1CC2(CCCC2)CC(=O)N1CCCCN1CCN(c2ncccn2)CC1 [buspirone]
- Effect on apomorphine-increased exploratory activity ([1]; buspirone 1 mg/kg, after 6th apomorphine injection): attenuated
- Effect on apomorphine-increased learning acquisition [2, 5]: further potentiated
- Effect on apomorphine-increased memory consolidation [2, 5]: further potentiated
- Effect on apomorphine-increased memory retention [2, 5]: further potentiated
- Memory enhancing effects of apomorphine [2, 6]: potentiated
- Effect on apomorphine-induced increases in post conditioning values of time spent in drug paired compartment [3, 7]: significantly attenuates
- Reinforcement effects of apomorphine [3, 7]: did not occur
- Addiction to apomorphine [3, 6]: reduced
- Effect on % psychosis like effects produced by apomorphine [4, 8]: attenuated
- Effect on apomorphine-increased motor activities post repeated administration [4, 8]: attenuated
